From patent US3957790A, “N-(3,3-diphenylpropyl)-n'-aralkyl-substituted piperazines” (Tokyo Tanabe Company, Ltd., priority 1974, dated 1976)
Structures can show the parent of a compound that is named as a salt.

Experiments:
[1] = acute toxicity by injection into the peritoneal cavities of mice; details: in vivo
Experimental: (§1) To illustrate one of the pharmacological effects of these compounds comparative experiments were carried out on the coronary blood flow increasing action, which was measured in rabbits by the Langendorff method, and on acute toxicity using the said trimetazidine as control, with the results being shown in Table 1. The Langendorff method was carried out according to the method described in Folia Pharmacologica Japonica, vol. 56, p. 1387 (1960), and the acute toxicity was measured by injection into the peritoneal cavities of mice.

coronary blood flow = coronary blood flow increasing action, measured in rabbits by the Langendorff method; set-up: species or system rabbit
From the text: The above-mentioned prior known derivatives of piperazine, however, have defects in that they are either too weak in the coronary blood flow increasing action [ED50 (mg)-the dose which can increase the coronary blood flow by 50%] or too strong in toxicity to be put to practical use as remedies for humans. Indeed, only one compound, trimetazidine dihydrochloride, [1-(2,3,4-trimethoxybenzyl)piperazine dihydrochloride)], is now being manufactured as a remedy for humans.
as §1

SMILES: COc1ccc(CN2CCN(CCC(c3ccccc3)c3ccccc3)CC2)c(OC)c1OC [1-(3,3-diphenylpropyl)-4-(2,3,4-trimethoxybenzyl)-piperazinedihydrochloride]
- LD50 ([1]; mouse, ip): 100 mg/kg
- ED50 (coronary blood flow increasing action; dose which can increase the coronary blood flow by 50%) (coronary blood flow): 0.02 mg

SMILES: COc1cc(CN2CCN(CCC(c3ccccc3)c3ccccc3)CC2)cc(OC)c1OC.Cl.Cl [1-(3,3-diphenylpropyl)-4-(3,4,5-trimethoxybenzyl)piperazine dihydrochloride]
- LD50 ([1]; ip mouse): 89 mg/kg
- ED50 (coronary blood flow increasing action; dose which can increase the coronary blood flow by 50%) (coronary blood flow): 0.06 mg

SMILES: COc1ccc(CN2CCN(CCC(c3ccccc3)c3ccccc3)CC2)cc1OC.Cl.Cl [1-(3,3-diphenylpropyl)-4-(3,4-dimethoxybenzyl)piperazine dihydrochloride]
- LD50 ([1]; ip mouse): 66 mg/kg
- ED50 (coronary blood flow increasing action; dose which can increase the coronary blood flow by 50%) (coronary blood flow): 0.05 mg

SMILES: Cl.Cl.c1ccc(CN2CCN(CCC(c3ccccc3)c3ccccc3)CC2)cc1 [1-(3,3-diphenylpropyl)-4-benzylpiperazine dihydrochloride]
- LD50 ([1]; ip mouse): 101 mg/kg
- ED50 (coronary blood flow increasing action; dose which can increase the coronary blood flow by 50%) (coronary blood flow): 0.08 mg

SMILES: COc1ccc(CN2CCNCC2)c(OC)c1OC.Cl.Cl [Trimetazidine, 1-(2,3,4-trimethoxybenzyl)piperazine dihydrochloride, reference compound]
- LD50 ([1]; ip mouse): 390 mg/kg
- ED50 (coronary blood flow increasing action; dose which can increase the coronary blood flow by 50%) (coronary blood flow): 0.80 mg
